Assay results published in PubChem BioAssay (NCI).
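The compound was tested at five concentrations on cells cultured in 96-well plates, with a 48-hour exposure period. GI50 is the concentration that inhibits growth by half. TGI: total growth inhibition.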

How the values were obtained:
Assay in all cases: growth of human tumour cells (NCI), 48 h
HT29 colon = system: HT29 colon
HCC-2998 colon = system: HCC-2998 colon
UO-31 renal = system: UO-31 renal
IGROV1 ovarian = system: IGROV1 ovarian
SF-539 CNS = system: SF-539 CNS
OVCAR-4 ovarian = system: OVCAR-4 ovarian
A498 renal = system: A498 renal
HS 578T breast = system: HS 578T breast
OVCAR-3 ovarian = system: OVCAR-3 ovarian
OVCAR-8 ovarian = system: OVCAR-8 ovarian
SK-MEL-5 melanoma = system: SK-MEL-5 melanoma
OVCAR-5 ovarian = system: OVCAR-5 ovarian
NCI-H226 lung = system: NCI-H226 lung
MCF7 breast = system: MCF7 breast
DU-145 prostate = system: DU-145 prostate
HCT-116 colon = system: HCT-116 colon
MDA-MB-231 breast = system: MDA-MB-231 breast
TK-10 renal = system: TK-10 renal
CCRF-CEM leukemia = system: CCRF-CEM leukemia
BT-549 breast = system: BT-549 breast
M14 melanoma = system: M14 melanoma
NCI/ADR-RES ovarian = system: NCI/ADR-RES ovarian
NCI-H522 lung = system: NCI-H522 lung
KM12 colon = system: KM12 colon
MALME-3M melanoma = system: MALME-3M melanoma
HOP-92 NSCLC = system: HOP-92 NSCLC
COLO 205 colon = system: COLO 205 colon
SF-268 CNS = system: SF-268 CNS
SK-MEL-2 melanoma = system: SK-MEL-2 melanoma
RXF 393 renal = system: RXF 393 renal
LOX IMVI melanoma = system: LOX IMVI melanoma
HOP-62 NSCLC = system: HOP-62 NSCLC
K-562 leukemia = system: K-562 leukemia
UACC-257 melanoma = system: UACC-257 melanoma
A549 NSCLC = system: A549 NSCLC
SNB-19 CNS = system: SNB-19 CNS
MOLT-4 leukemia = system: MOLT-4 leukemia
T-47D breast = system: T-47D breast
NCI-H460 lung = system: NCI-H460 lung
RPMI-8226 leukemia = system: RPMI-8226 leukemia
UACC-62 melanoma = system: UACC-62 melanoma
CAKI-1 renal = system: CAKI-1 renal
PC-3 prostate = system: PC-3 prostate
SNB-75 CNS = system: SNB-75 CNS
786-0 renal = system: 786-0 renal
SN12C renal = system: SN12C renal
SK-MEL-28 melanoma = system: SK-MEL-28 melanoma
SW-620 colon = system: SW-620 colon
HL-60(TB) leukemia = system: HL-60(TB) leukemia
NCI-H23 lung = system: NCI-H23 lung
SK-OV-3 ovarian = system: SK-OV-3 ovarian
U251 CNS = system: U251 CNS
HCT-15 colon = system: HCT-15 colon
SR leukemia = system: SR leukemia
MDA-MB-435 = system: MDA-MB-435
ACHN renal = system: ACHN renal

With CCOC(=O)N1C/C(=C/c2ccc(F)cc2)C(=O)/C(=C/c2ccc(F)cc2)C1 the GI50 (HT29 colon) was 363 nM, the TGI (HT29 colon) was 1370 nM and the GI50 (HCC-2998 colon) was 1840 nM. The TGI (HCC-2998 colon) was 3290 nM, the GI50 (UO-31 renal) was 1530 nM and the TGI (UO-31 renal) was 3070 nM. The GI50 (IGROV1 ovarian) was 2390 nM, the TGI (IGROV1 ovarian) was 6120 nM and the GI50 (SF-539 CNS) was 1760 nM. The TGI (SF-539 CNS) was 3300 nM, the GI50 (OVCAR-4 ovarian) was 2240 nM and the TGI (OVCAR-4 ovarian) was 6380 nM. For the same compound, the GI50 (A498 renal) was 2160 nM, the TGI (A498 renal) was 5120 nM and the GI50 (HS 578T breast) was 3130 nM. For the same compound, the TGI (HS 578T breast) was 29000 nM, the GI50 (OVCAR-3 ovarian) was 1850 nM and the TGI (OVCAR-3 ovarian) was 3470 nM. For the same compound, the GI50 (OVCAR-8 ovarian) was 2470 nM, the TGI (OVCAR-8 ovarian) was 10800 nM and the GI50 (SK-MEL-5 melanoma) was 1360 nM. For the same compound, the TGI (SK-MEL-5 melanoma) was 2670 nM, the GI50 (OVCAR-5 ovarian) was 1890 nM and the TGI (OVCAR-5 ovarian) was 3830 nM. It also gave a GI50 (NCI-H226 lung) of 3520 nM, a TGI (NCI-H226 lung) of 19800 nM and a GI50 (MCF7 breast) of 327 nM. For the same compound, the TGI (MCF7 breast) was 1390 nM, the GI50 (DU-145 prostate) was 3480 nM and the TGI (DU-145 prostate) was 10900 nM. For the same compound, the GI50 (HCT-116 colon) was 205 nM, the TGI (HCT-116 colon) was 397 nM and the GI50 (MDA-MB-231 breast) was 1810 nM. The TGI (MDA-MB-231 breast) was 4180 nM, the GI50 (TK-10 renal) was 2870 nM and the TGI (TK-10 renal) was 6990 nM. For the same compound, the GI50 (CCRF-CEM leukemia) was 758 nM, the TGI (CCRF-CEM leukemia) was 5640 nM and the GI50 (BT-549 breast) was 1650 nM. It also gave a TGI (BT-549 breast) of 3090 nM, a GI50 (M14 melanoma) of 2070 nM and a TGI (M14 melanoma) of 4670 nM. The GI50 (NCI/ADR-RES ovarian) was 3280 nM, the TGI (NCI/ADR-RES ovarian) was 21100 nM and the GI50 (NCI-H522 lung) was 1950 nM. It also gave a TGI (NCI-H522 lung) of 3980 nM, a GI50 (KM12 colon) of 641 nM and a TGI (KM12 colon) of 2040 nM. The GI50 (MALME-3M melanoma) was 2340 nM, the TGI (MALME-3M melanoma) was 5580 nM and the GI50 (HOP-92 NSCLC) was 1650 nM. It also gave a TGI (HOP-92 NSCLC) of 4640 nM, a GI50 (COLO 205 colon) of 1920 nM and a TGI (COLO 205 colon) of 3540 nM. The GI50 (SF-268 CNS) was 2200 nM, the TGI (SF-268 CNS) was 5520 nM and the GI50 (SK-MEL-2 melanoma) was 2880 nM. It also gave a TGI (SK-MEL-2 melanoma) of 6390 nM, a GI50 (RXF 393 renal) of 1630 nM and a TGI (RXF 393 renal) of 3110 nM. The GI50 (LOX IMVI melanoma) was 327 nM, the TGI (LOX IMVI melanoma) was 1100 nM and the GI50 (HOP-62 NSCLC) was 2100 nM. The TGI (HOP-62 NSCLC) was 4240 nM, the GI50 (K-562 leukemia) was 754 nM and the TGI (K-562 leukemia) was greater than 100000 nM. The GI50 (UACC-257 melanoma) was 2860 nM, the TGI (UACC-257 melanoma) was 9650 nM and the GI50 (A549 NSCLC) was 2640 nM. The TGI (A549 NSCLC) was 8650 nM, the GI50 (SNB-19 CNS) was 2080 nM and the TGI (SNB-19 CNS) was 6310 nM. It also gave a GI50 (MOLT-4 leukemia) of 2600 nM, a TGI (MOLT-4 leukemia) of 7840 nM and a GI50 (T-47D breast) of 2820 nM. The TGI (T-47D breast) was 7970 nM, the GI50 (NCI-H460 lung) was 1960 nM and the TGI (NCI-H460 lung) was 4560 nM. The GI50 (RPMI-8226 leukemia) was 201 nM, the TGI (RPMI-8226 leukemia) was 772 nM and the GI50 (UACC-62 melanoma) was 1610 nM. It also gave a TGI (UACC-62 melanoma) of 3390 nM, a GI50 (CAKI-1 renal) of 3010 nM and a TGI (CAKI-1 renal) of 12100 nM. It also gave a GI50 (PC-3 prostate) of 1850 nM, a TGI (PC-3 prostate) of 5460 nM and a GI50 (SNB-75 CNS) of 2600 nM. It also gave a TGI (SNB-75 CNS) of 10700 nM, a GI50 (786-0 renal) of 1690 nM and a TGI (786-0 renal) of 3620 nM. For the same compound, the GI50 (SN12C renal) was 1590 nM, the TGI (SN12C renal) was 3160 nM and the GI50 (SK-MEL-28 melanoma) was 1800 nM. For the same compound, the TGI (SK-MEL-28 melanoma) was 3350 nM, the GI50 (SW-620 colon) was 487 nM and the TGI (SW-620 colon) was 1740 nM. The GI50 (HL-60(TB) leukemia) was 3180 nM, the TGI (HL-60(TB) leukemia) was 10600 nM and the GI50 (NCI-H23 lung) was 2350 nM. It also gave a TGI (NCI-H23 lung) of 5670 nM, a GI50 (SK-OV-3 ovarian) of 2220 nM and a TGI (SK-OV-3 ovarian) of 4710 nM. For the same compound, the GI50 (U251 CNS) was 1190 nM, the TGI (U251 CNS) was 2550 nM and the GI50 (HCT-15 colon) was 1160 nM. It also gave a TGI (HCT-15 colon) of 3020 nM, a GI50 (SR leukemia) of 341 nM and a TGI (SR leukemia) of 3610 nM. For the same compound, the GI50 (MDA-MB-435) was 1220 nM, the TGI (MDA-MB-435) was 3730 nM and the GI50 (ACHN renal) was 1860 nM. It also gave a TGI (ACHN renal) of 3420 nM.
